According to US20100144854A1 (priority 2007, published 2010):

Assays:
[1] = tested on: adenocarcinoma of the right ovary; assay: Example 3: patient with ovarian adenocarcinoma treated with rhodamine 6G; assay type: in vivo, human; conditions: Patient T, 54
Excerpt: Patient T. Diagnosis: adenocarcinoma of the right ovary. Metastases in the liver. A hysterectomy had been carried out 4 years before. There was a recurrence of the cancer after a year. The patient complained of pain in the pelvis and difficulty in urination. […] The patient's condition was moderately severe; pale skin. […] The course of treatment lasted 3 months. During the treatment the tumor decreased in size to 1.2×0.9×0.3 cm. […] Blood analyses against the treatment background became normal over 2 months. A full course of treatment with the preparation was carried out over 6 months. During the course of the treatment the tumor in the region of the bladder and rectum disappeared.

[2] = tested on: Recurring cancer of the right ovary; assay: Example 8: patient with recurring ovarian cancer treated with rhodamine 6G enema; assay type: in vivo, human; conditions: Patient T, 52; third day after start; enema 5 g per day
Experimental: In connection with the detection of carcinoma of the left ovary the patient underwent a hysterectomy.
After the operation the patient was given a 2-year course of chemotherapy. The patient subsequently complained of pain in the rectum and tenesmus.
Diagnosis: Recurring cancer of the right ovary.
In view of the ineffectiveness of continuing the chemotherapy, the patient was treated with the preparation in the form of an enema.

Substance: 9-(2-ethoxycarbonyl)phenyl)-3,6-bis(ethylamino)2,7-dimethylxanthyl chloride [rhodamine 6G]
- body weight ([1]; after treatment): regained weight
- tumor in the region of the bladder and rectum ([1]; full course over 6 months): disappeared
- blood analyses against the treatment background ([1]; over 2 months): became normal
- stools and feeling of pain ([1]; second week after start): the stools became normal and the feeling of pain disappeared
- severity of the pain [2]: decreased
